With `Cl.Cl.OC1CCN(c2ccccc2)C12CCN(C1CCCCCCCCC1)CC2` (racemic) the melting point was 170 °C (dec.).
Compound `O=C(O)/C=C/C(=O)O.O=C1CCN(c2ccccc2)C12CCN([C@@H]1CC[C@H]3CCCc4cccc1c43)CC2` (racemic) has a melting point of 144 °C.
Work on `Cc1cccc2c1CC(N1CCC3(CC1)C(=O)CCN3c1ccccc1)C2.Cl` (racemic) yielded a melting point of over 250 °C.
With `Cl.O=C1CCN(c2ccccc2)C12CCN([C@@H]1CC[C@@H]3CCCC[C@@H]3C1)CC2` (racemic) the melting point was 250 to 251 °C (dec.).
`O=C(O)/C=C/C(=O)O.O=C1CCN(c2ccccc2)C12CCN(C1C[C@H]3CCCC[C@H]3C1)CC2` (stereo partly shown) showed a melting point of 225 °C.
In the case of `COC1CCN(c2ccccc2)C12CCN(C1CCCCCCCCC1)CC2.Cl.Cl` (racemic), the melting point is reported as 170 °C (dec.).
`CC(C)[C@H]1CC[C@H](N2CCC3(CC2)C(=O)CCN3c2ccccc2)CC1.Cl` showed a melting point of 237 to 238 °C.
Work on `O=C(O)/C=C/C(=O)O.O=C1CCN(c2ccccc2)C12CCN(C1CCCCCCCC1)CC2` yielded a melting point of 185 °C.
With `O=C(O)/C=C/C(=O)O.O=C1CCN(c2ccccc2)C12CCN(C1CCCCCCCCC1)CC2` the melting point was 177 °C.
In the case of `CC(C)[C@H]1CC[C@H](N2CCC3(CC2)C(O)CCN3c2ccccc2)CC1.Cl` (mixture of isomers), the melting point is reported as over 250 °C.
Compound `O=C(O)/C=C/C(=O)O.O=C1CCN(c2ccccc2)C12CCN(C1CCCCCCC1)CC2` has a melting point of 197 °C.
Work on `CC(C)[C@H]1CC[C@@H](N2CCC3(CC2)[C@@H](O)CCN3c2ccccc2)CC1.Cl` yielded a melting point of over 250 °C.
For `CC(C)[C@H]1CC[C@@H](N2CCC3(CC2)ON=C(c2ccccc2)N3c2ccccc2)CC1.Cl`, the melting point was 131 °C.
Compound `COC1CCN(c2ccccc2)C12CCN([C@H]1CC[C@@H](C(C)C)CC1)CC2.Cl` (mixture of isomers) has a melting point of 214 to 215 °C.
For `CC(C)[C@H]1CC[C@@H](N2CCC3(CC2)[C@H](O)CCN3c2ccccc2)CC1.Cl`, the melting point was over 250 °C.
With `Cl.O=C1CCN(c2ccccc2)C12CCN(C1Cc3ccccc3C1)CC2` the melting point was over 250 °C.
Work on `Cl.OC1CCN(c2ccccc2)C12CCN(C1Cc3ccccc3C1)CC2` (racemic) yielded a melting point of over 250 °C.
In the case of `COC1CCN(c2ccccc2)C12CCN(C1CCCCCCCC1)CC2.O=C(O)/C=C/C(=O)O` (racemic), the melting point is reported as 196 °C (dec.).
With `Cl.Cl.OC1CCN(c2ccccc2)C12CCN(C1CCCCCCC1)CC2` (racemic) the melting point was 173 °C (dec.).
In the case of `CC(C)[C@H]1CC[C@@H](N2CCC3(CC2)C(O)CCN3c2ccccc2)CC1.Cl` (mixture of isomers), the melting point is reported as over 250 °C.
Compound `Cl.OC1CCN(c2ccccc2)C12CCN(C1CCC3CCCCC3C1)CC2` (stereo not shown) has a melting point of over 250 °C.
With `Cl.Cl.OC1CCN(c2ccccc2)C12CCN(C1CCCCCCCC1)CC2` (racemic) the melting point was 170 °C (dec.).
